Data published in patent US4540708A, “Sulfenyl carbamate derivatives and insecticidal compositions containing the same” (priority 1982, dated 1985).
Read-outs that look alike come from different tables or passages of the source.

Assays:
[1] = test system: tobacco cutworm (Spodoptera litura); assay: Test Example 1: mortality of third-instar larvae of tobacco cutworm on cabbage, 3 days; format: in vivo; conditions: 72 h
Description: Ten third-instar larvae of tobacco cutworm (Spodoptera litura) were placed on a cabbage (one-month-old seedling) planted in a pot, and a 50% emulsion of the compound to be tested was diluted to a specified concentration and applied to the leaves of the plant to fully wet them. The test compound of each specified concentration was tested on two pots.

[2] = test system: green rice leafhopper (Nephotettix cincticeps); assay: Test Example 2: mortality of female adults of green rice leafhopper on paddy rice, 3 days; format: in vivo; conditions: 72 h
Description: An emulsion of specified concentration was prepared from a 50% wettable powder of the compound to be tested and applied to the leaves of paddy rice (one-month-old seedlings) planted in a pot to fully wet the leaves. After the emulsion had been dried, the pot was covered with a net cage, into which 10 female adults of green rice leafhopper (Nephotettix cincticeps) were released. The compound of each specified concentration was tested on two pots.

[3] = 125 ppm active ingredient, 3 days, read-out: Mortality
[4] = 250 ppm active ingredient, 3 days, read-out: Mortality
[5] = 500 ppm active ingredient, 3 days, read-out: Mortality
[6] = 1000 ppm active ingredient, 3 days, read-out: Mortality
[7] = 200 ppm active ingredient, 3 days, read-out: Mortality
[8] = 400 ppm active ingredient, 3 days, read-out: Mortality
[9] = 800 ppm active ingredient, 3 days, read-out: Mortality

Structure (SMILES) | mortality at 125 ppm [1] [%] | mortality at 250 ppm [1] [%] | mortality at 500 ppm [1] [%] | mortality at 1000 ppm [1] [%] | mortality at 200 ppm [2] [%] | mortality at 400 ppm [2] [%] | mortality at 800 ppm [2] [%] | mortality at 125 ppm [1, 3] [%] | mortality at 250 ppm [1, 4] [%] | mortality at 500 ppm [1, 5] [%] | mortality at 1000 ppm [1, 6] [%] | mortality at 200 ppm [2, 7] [%] | mortality at 400 ppm [2, 8] [%] | mortality at 800 ppm [2, 9] [%]
CCOCCN(CCC(=O)OC)SN(C)C(=O)Oc1cccc2c1OC(C)(C)C2 [Example 8] | 40 | 60 | 80 | 90 | 75 | 90 | 100 | – | – | – | – | – | – | –
COC(=O)CCN(CCCCOc1ccccc1)SN(C)C(=O)Oc1cccc2c1OC(C)(C)C2 [Example 14] | 35 | 50 | 70 | 80 | 65 | 85 | 100 | – | – | – | – | – | – | –
CCOC(=O)CN(CCOC)SN(C)C(=O)ON=C(C)SC [Example 19] | – | – | – | – | – | – | – | 90 | 100 | 100 | 100 | 90 | 100 | 100
COCCCN(CCC(=O)OC)SN(C)C(=O)Oc1cccc2c1OC(C)(C)C2 [Example 1, 2,3-dihydro-2,2-dimethylbenzofuran-7-yl N-[N-(3-methoxypropyl)-N-methoxycarbonylethylaminosulfenyl]N-methyl carbamate] | 40 | 65 | 80 | 90 | 70 | 90 | 100 | – | – | – | – | – | – | –
COCCN(CCC#N)SN(C)C(=O)ON=C(C)SC [Example 17] | – | – | – | – | – | – | – | 85 | 95 | 100 | 100 | 80 | 95 | 100
COC(=O)CCN(CCOC(C)C)SN(C)C(=O)Oc1cccc2c1OC(C)(C)C2 [Example 9] | 40 | 60 | 80 | 90 | 75 | 90 | 100 | – | – | – | – | – | – | –
COC(=O)CCN(CCOCc1ccccc1)SN(C)C(=O)Oc1cccc2c1OC(C)(C)C2 [Example 13] | 40 | 55 | 70 | 85 | 65 | 85 | 100 | – | – | – | – | – | – | –
COC(=O)CCN(CCOC1CCCCC1)SN(C)C(=O)Oc1cccc2c1OC(C)(C)C2 [Example 10] | 35 | 50 | 70 | 85 | 65 | 85 | 100 | – | – | – | – | – | – | –
CNC(=O)ON=C(C)SC [Control*] | – | – | – | – | – | – | – | 85 | 90 | – | – | – | – | –
CCCCOC(=O)CCN(CCOC)SN(C)C(=O)Oc1cccc2c1OC(C)(C)C2 [Example 12] | 40 | 55 | 75 | 85 | 70 | 85 | 100 | – | – | – | – | – | – | –
COC(=O)CCN(CCOC(C)C)SN(C)C(=O)ON=C(C)SC [Example 21] | – | – | – | – | – | – | – | 100 | 100 | 100 | 100 | 85 | 100 | 100
CCCCOC(=O)CCN(CCOC)SN(C)C(=O)ON=C(C)SC [Example 24] | – | – | – | – | – | – | – | 80 | 95 | 100 | 100 | 85 | 95 | 100
COC(=O)CCN(CCCCCOc1ccccc1)SN(C)C(=O)Oc1cccc2c1OC(C)(C)C2 [Example 15] | 40 | 50 | 70 | 80 | 65 | 80 | 100 | – | – | – | – | – | – | –
COC(=O)CCN(CCCOc1ccccc1)SN(C)C(=O)Oc1cccc2c1OC(C)(C)C2 [Example 7] | 40 | 60 | 75 | 85 | 60 | 80 | 100 | – | – | – | – | – | – | –
COC(=O)CCN(CCCCOc1ccccc1)SN(C)C(=O)ON=C(C)SC [Example 25] | – | – | – | – | – | – | – | 80 | 90 | 100 | 100 | 85 | 90 | 100
CCOC(=O)CN(CCCOC)SN(C)C(=O)Oc1cccc2c1OC(C)(C)C2 [Example 6] | 55 | 70 | 80 | 90 | 70 | 95 | 100 | – | – | – | – | – | – | –
COCCCN(CCC(=O)OC)SN(C)C(=O)ON=C(C)SC [Example 16] | – | – | – | – | – | – | – | 100 | 100 | 100 | 100 | 90 | 100 | 100
COC(=O)CCN(CCOC1CCCCC1)SN(C)C(=O)ON=C(C)SC [Example 22] | – | – | – | – | – | – | – | 90 | 100 | 100 | 100 | 80 | 95 | 100
CSC(C)=NOC(=O)N(C)SN(CCC#N)CCCOC(C)C [Example 23] | – | – | – | – | – | – | – | 85 | 95 | 100 | 100 | 80 | 95 | 100
COC(=O)CCN(CCCOc1ccccc1)SN(C)C(=O)ON=C(C)SC [Example 20] | – | – | – | – | – | – | – | 90 | 95 | 100 | 100 | 80 | 90 | 100
COCCN(CCC(=O)OC)SN(C)C(=O)ON=C(C)SC [Example 3, S-methyl N-[{N-methyl-N-(N-methoxyethyl-N-methoxycarbonylethylaminosulfenyl)carbamoyl}oxy]-thioacetimidate] | – | – | – | – | – | – | – | 55 | 70 | 85 | 90 | 65 | 90 | 100
CC(C)OCCCN(CCC#N)SN(C)C(=O)Oc1cccc2c1OC(C)(C)C2 [Example 11] | 35 | 50 | 70 | 80 | 70 | 90 | 100 | – | – | – | – | – | – | –
COCCN(CC#N)SN(C)C(=O)ON=C(C)SC [Example 18] | – | – | – | – | – | – | – | 100 | 100 | 100 | 100 | 80 | 95 | 100
